From patent publication US9981923B2, “1,2,3 Triazole antifungal agents and preparation thereof” (COUNCIL OF SCIENTIFIC & INDUSTRIAL RESEARCH, priority 2014, dated 2018)
Converted amounts (≈) assume the structure as drawn.

Legend:
[1] = test system: Aspergillus fumigatus MCC 1046; assay: Antifungal susceptibility by microbroth dilution (CLSI); type: cell-based; conditions: Table 2; for MIC: Aspergillus fumigatus, MCC1046, read-out: MIC values
Description: (§1) The synthesized compounds were evaluated for antifungal susceptibility by microbroth dilution method according to the recommendations of the Clinical Laboratory Standards Institute (CLSI 2008). Briefly, appropriate amount of compounds were dissolved in dimethyl sulfoxide to get 100× final strength. The stock was then diluted 1:50 in RPMI/YPG medium and 200 μl from this was added to the first row of a 96-well microtitre plate. The compounds were serially diluted two fold in successive wells to get a range of 1-128 μg/ml. Fungal yeast cells (˜2×10^3 cfu/mL), freshly grown in YPG broth in logarithmic phase, were suspended in the medium and inoculated (100 μl) in the wells of the plate. For filamentous fungi, 2×10^4 spores/mL were added. The microtitre plate was incubated for 48 h, and the absorbance was measured at 600 nm by using microtitre plate reader to assess cell growth.

[2] = test system: Cryptococcus neoformans ATCC 34664; assay: as above; type: cell-based; conditions: Table 2; for MIC: Cryptococcus neoformans, ATCC34664, read-out: MIC values
Description: as §1

[3] = test system: Candida glabrata NCYC 388; assay: as above; type: cell-based; conditions: Table 2; for MIC: Nakaseomyces glabratus, NCYC388, read-out: MIC values
Description: as §1

[4] = test system: Candida albicans ATCC 10231; assay: as above; type: cell-based; conditions: Table 2; for MIC: Candida albicans, ATCC10231, read-out: MIC values
Description: as §1

[5] = test system: C. tropicalis ATCC 750; assay: as above; type: cell-based; conditions: Table 2; for MIC: Candida tropicalis, ATCC750
Description: as §1

[6] = test system: Candida albicans ATCC 24433; assay: as above; type: cell-based; conditions: Table 2; for MIC: Candida albicans, ATCC24433, read-out: MIC values
Description: as §1

[7] = test system: Aspergillus niger ATCC 10578; assay: as above; type: cell-based; conditions: Table 2; for MIC: Aspergillus niger, ATCC10578, read-out: MIC values
Description: as §1

Row | Structure (SMILES) | melting point [°C] | MIC [1] [µg/mL] | MIC [2] [µg/mL] | MIC [3] [µg/mL] | MIC [4] [µg/mL] | MIC [5] [µg/mL] | MIC [6] [µg/mL] | MIC [7] [µg/mL] | MIC values [1] [µg/mL] | MIC values [2] [µg/mL] | MIC values [3] [µg/mL] | MIC values [4] [µg/mL] | MIC values [5] [µg/mL] | MIC values [6] [µg/mL] | MIC values [7] [µg/mL]
1 | CC(O)(Cc1cn(-c2ccc(Cl)cc2O)nn1)c1cc(C(F)(F)F)cc(C(F)(F)F)c1 (stereo not drawn) [Compound 2sb, 2-(4-(2-(3,5-Bis(trifluoromethyl)phenyl)-2-hydroxypropyl)-1H-1,2,3-triazol-1-yl)-5-chlorophenol] | 156 to 158 |  |  |  |  |  |  |  |  |  |  |  |  |  | 
2 | CC(O)(Cc1cn(-c2cc(Cl)ccc2O)nn1)c1ccc(F)cc1F (stereo not drawn) [Compound 3aa, 4-Chloro-2-(4-(2-(2,4-difluorophenyl)-2-hydroxypropyl)-1H-1,2,3-triazol-1-yl)phenol] |  | > 256 | 64 (≈ 175 µM) | 32 (≈ 87.5 µM) | 32 (≈ 87.5 µM) | 128 (≈ 350 µM) | 32 (≈ 87.5 µM) | 128 (≈ 350 µM) |  |  |  |  |  |  | 
3 | CC(O)(Cc1cn(-c2ccc(Cl)cc2O)nn1)c1ccc(F)cc1F (stereo not drawn) [Compound 3ab, 5-Chloro-2-(4-(2-(2,4-difluorophenyl)-2-hydroxypropyl)-1H-1,2,3-triazol-1-yl)phenol] |  | 64 (≈ 175 µM) | 32 (≈ 87.5 µM) | 32 (≈ 87.5 µM) | 32 (≈ 87.5 µM) | 64 (≈ 175 µM) | 16 (≈ 43.7 µM) | 64 (≈ 175 µM) |  |  |  |  |  |  | 
4 | CC(O)(Cc1cn(-c2ccc(Cl)cc2O)nn1)c1ccc(Cl)cc1Cl (stereo not drawn) [Compound 3bb, 5-Chloro-2-(4-(2-(2,4-dichlorophenyl)-2-hydroxypropyl)-1H-1,2,3-triazol-1-yl)phenol] |  | 16 (≈ 40.1 µM) | 8 (≈ 20.1 µM) | 16 (≈ 40.1 µM) | 16 (≈ 40.1 µM) | 32 (≈ 80.3 µM) | 4 (≈ 10 µM) | 32 (≈ 80.3 µM) |  |  |  |  |  |  | 
5 | CC(O)(Cc1cn(-c2ccc(F)cc2O)nn1)c1ccc(Cl)cc1Cl (stereo not drawn) [Compound 3bc, 2-(4-(2-(2,4-Dichlorophenyl)-2-hydroxypropyl)-1H-1,2,3-triazol-1-yl)-5-fluorophenol] |  | 64 (≈ 167 µM) | 16 (≈ 41.9 µM) | 16 (≈ 41.9 µM) | 8 (≈ 20.9 µM) | 32 (≈ 83.7 µM) | 16 (≈ 41.9 µM) | 64 (≈ 167 µM) |  |  |  |  |  |  | 
6 | CC(O)(Cc1cn(-c2cc(Cl)ccc2O)nn1)c1ccc(F)cc1 (stereo not drawn) [Compound 3da, 4-Chloro-2-(4-(2(4fluorophenyl)-2-hydroxypropyl)-1H-1,2,3-triazol-1-yl)phenol] |  | 64 (≈ 184 µM) | 64 (≈ 184 µM) | 64 (≈ 184 µM) | 32 (≈ 92 µM) | 128 (≈ 368 µM) | 32 (≈ 92 µM) | 128 (≈ 368 µM) |  |  |  |  |  |  | 
7 | CC(O)(Cc1cn(-c2cc(Cl)ccc2O)nn1)c1ccc(Cl)cc1 (stereo not drawn) [Compound 3ea, 4-Chloro-2-(4-(2-(4-chlorophenyl)-2-hydroxypropyl)-1H-1,2,3-triazol-1-yl)phenol] |  | 64 (≈ 176 µM) | 32 (≈ 87.9 µM) | 16 (≈ 43.9 µM) | 8 (≈ 22 µM) | 64 (≈ 176 µM) | 16 (≈ 43.9 µM) | 64 (≈ 176 µM) |  |  |  |  |  |  | 
8 | CC(O)(Cc1cn(-c2ccc(Cl)cc2O)nn1)c1ccc(Cl)cc1 (stereo not drawn) [Compound 3eb, 5-Chloro-2-(4-(2-(4-chlorophenyl)-2-hydroxypropyl)-1H-1,2,3-triazol-1-yl)phenol] |  | 64 (≈ 176 µM) | 32 (≈ 87.9 µM) | 32 (≈ 87.9 µM) | 16 (≈ 43.9 µM) | 64 (≈ 176 µM) | 32 (≈ 87.9 µM) | 64 (≈ 176 µM) |  |  |  |  |  |  | 
9 | CC(O)(Cc1cn(-c2cc(Cl)ccc2O)nn1)c1ccc(Br)cc1 (stereo not drawn) [Compound 3fa, 2-(4-(2-(4-Bromophenyl)-2-hydroxypropyl)-1H-1,2,3-triazol-1-yl)-4-chlorophenol] |  | 16 (≈ 39.2 µM) | 32 (≈ 78.3 µM) |  |  | 64 (≈ 157 µM) | 4 (≈ 9.79 µM) | 32 (≈ 78.3 µM) |  |  |  |  |  |  | 
10 | CC(O)(Cc1cn(-c2ccc(Cl)cc2O)nn1)c1ccc(Br)cc1 (stereo not drawn) [Compound 3fb, 2-(4-(2-(4-Bromophenyl)-2-hydroxypropyl)-1H-1,2,3-triazol-1-yl)-5-chlorophenol] |  | 64 (≈ 157 µM) | 32 (≈ 78.3 µM) | 32 (≈ 78.3 µM) | 16 (≈ 39.2 µM) | 64 (≈ 157 µM) | 16 (≈ 39.2 µM) | 64 (≈ 157 µM) |  |  |  |  |  |  | 
11 | CC(O)(Cc1cn(-c2ccc(F)cc2O)nn1)c1ccc(Br)cc1 (stereo not drawn) [Compound 3fc, 2-(4-(2-(4-Bromophenyl)-2-hydroxypropyl)-1H-1,2,3-triazol-1-yl)-5-fluorophenol] |  | 64 (≈ 163 µM) | 64 (≈ 163 µM) | 64 (≈ 163 µM) | 16 (≈ 40.8 µM) | 128 (≈ 326 µM) | 8 (≈ 20.4 µM) | 128 (≈ 326 µM) |  |  |  |  |  |  | 
12 | CC(O)(Cc1cn(-c2ccccc2O)nn1)c1ccc(Br)cc1 (stereo not drawn) [Compound 3fd, 2-(4-(2-(4-Bromophenyl)-2-hydroxypropyl)-1H-1,2,3-triazol-1-yl)phenol] |  | 128 (≈ 342 µM) | 128 (≈ 342 µM) |  |  | 256 (≈ 684 µM) | 32 (≈ 85.5 µM) | 128 (≈ 342 µM) |  |  |  |  |  |  | 
13 | CN(C)c1ccc(C(O)Cc2cn(-c3cc(Cl)ccc3O)nn2)cc1 (stereo not drawn) [Compound 3ga, 4-Chloro-2-(4-(2-(4-(dimethylamino)phenyl)-2-hydroxyethyl)-1H-1,2,3-triazol-1-yl)phenol] |  |  |  |  |  |  |  |  | >256 | 64 (≈ 178 µM) | 16 (≈ 44.6 µM) | 16 (≈ 44.6 µM) | >256 | 64 (≈ 178 µM) | >256
